Results published in patent US5391555A, “Methods for treating inflammatory bowel disease with leukotriene synthesis inhibitors” (Miles Inc., priority 1993, dated 1995).

Assays:
[1] = tested on: LTB4 / human blood polymorphonuclear leukocytes (PMN); assay: response of human blood polymorphonuclear leukocytes (PMN): A23187-stimulated LTB4 in human whole blood; type: cell-based; conditions: Leukocyte, 0.5 h, LTB4, 30 μM ionophore A23187, 30 min, 37° C., read-out: ED50 human whole blood
Description: For evaluation of the response of human blood polymorphonuclear leukocytes (PMN), 0.5 ml aliquots of human blood with heparin as the anticoagulant are preincubated for 10 minutes with 2 μl dimethylsulfoxide (DMSO) alone or with DMSO containing the compound to be tested (shaken in water bath at 37° C.).
The PMN are then stimulated with a final concentration 30 μM of the ionophore A23187 for 30 minutes at 37° C. The reaction is terminated with 1 ml methanol. The incubate is cooled 20 minutes in an ice bath, vortexed, then centrifuged at 13,000 g.
The amount of LTB4 present in the removed supernatant is analysed by HPLC and/or radioimmune assays.

edema of the mouse ear = assay: Mouse Ear Inflammation Test (arachidonic acid-induced edema); type: in vivo; conditions: oral, 60 minutes before arachidonic acid, swelling at 30 minutes, averaged over several experiments, read-out: Edema formation - ED50
Description: Because it is known that leukotrienes are the major mediators of the edema which follows the application of arachidonic acid on the skin of the mouse ear and because the human clinical trials have implicated leukotrienes in the pathology of Inflammatory Bowel Disease (IBD), the mouse ear inflammation test can be used as a model to predict efficacy in IBD.
In this test edema is induced by the topical application of 10 μl of a 20% arachidonic acid solution on the mouse ear. 60 minutes before arachidonic acid application the animals were treated orally with compound or vehicle. 30 minutes after the induction of inflammation the swelling of the ear was measured. The results averaged over several experiments are shown below.

human bronchial muscle = human bronchial muscle contraction stimulated by anti-human IgE; type: cell-based; conditions: for IC50: contraction stimulated by anti-human IgE (1/1000), read-out: ED50 human bronchial muscle
Description: For the measurement of human bronchial muscle contraction, bronchial rings were obtained from patients undergoing surgical resection of the lungs typical for lung cancer. The muscle rings were set up in organ baths under an initial load of 3 g and contracted with 100 μM acetylcholine in Tyrode's solution to provide a standardized contraction. The organs were then washed until they returned to the baseline tension in Tyrode's solution containing atropine 1 μM, indomethacin 3 μM and polaramine 1 μM at 37° C.
Contraction was stimulated by the treatment of the muscle strips with anti-human IgE (1/1000) with or without LSI. The intensity of the contractions were expressed as the percentage of the acetylcholine-inducedcontraction. The percentage of inhibition by the LSI was calculated from the ratio of the relative contractions. The activity of several of the well known LSIs of other structural classes (Zileuton & MK886) are compared below with the quinolines of the present invention.

[2] = tested on: TNBS-induced colitis in rats; assay: TNBS-induced colitis in rats: colonic damage; type: in vivo, Male Wistar rats; conditions: 30 and 100 mg/kg orally bid, 7 days; 14 days following induction; vs placebo
Description: (§1) A colitis resembling human ulcerative colitis can be induced in rats by the intracolonic infusion of trinitrobenzene sulfonic acid (Wallace et al., 1990, Am J Physiol. 258:G527-34).
(§2) Male Wistar rats were lightly anesthetized with ether, and a 2.3 mm rubber cannula inserted into the lumen of the colon via the anus. The cannula was advanced so that the tip was approximately 8 cm proximal to the anus. Colitis is induced by the administration of 0.25 ml of 50% ethanol (vol/vol) containing 30 mg of 2,4,6-trinitrobenzene sulfonic acid (TNB) through the cannula. After instilling the TNB-ethanol solution, the cannula was left in place for a few seconds then gently removed.
(§3) Animals were sacrificed at various time intervals after the administration of TNB-ethanol for examination of the level of LTB4 in the tissue and for histological examination.
R-(-)-2-cyclopentyl-2-[4-(2-quinolinyl-methoxy)-phenyl]-acetic acid, at doses of 30 and 100 mg/kg or placebo is administered orally to these animals bid beginning 2 hours before induction of colitis and continuing for the next 7 days. Two hours after the administration of the test compound, animals are sacrificed and samples of the grossly inflammed colonic tissue are excised and incubated in vitro for 20 minutes. […]

LTB4 = assay: TNBS-induced colitis in rats: LTB4 synthesis by excised colonic tissue; type: in vivo, Male Wistar rats; conditions: 30 and 100 mg/kg orally bid, 7 days; tissue incubated in vitro 20 minutes
Description: as §1, §2, §3
(§4) R-(-)-2-cyclopentyl-2-[4-(2-quinolinyl-methoxy)-phenyl]-acetic acid, at doses of 30 and 100 mg/kg or placebo is administered orally to these animals bid beginning 2 hours before induction of colitis and continuing for the next 7 days. Two hours after the administration of the test compound, animals are sacrificed and samples of the grossly inflammed colonic tissue are excised and incubated in vitro for 20 minutes.

bronchodilator in man = conditions: compared with prediction from inhibition of neutrophil-dependent LTB4 synthesis at blood concentration; cited from earlier work
TxB2 = assay: TNBS-induced colitis in rats: TxB2 synthesis by excised colonic tissue; type: in vivo, Male Wistar rats; conditions: 30 and 100 mg/kg orally bid, 7 days; tissue incubated in vitro 20 minutes
Description: as §1, §2, §3, §4

[3] = tested on: Dextran Sulfate-induced colitis in mice; assay: Dextran Sulfate-induced colitis in mice; type: in vivo; conditions: 10 mg/kg or 30 mg/kg orally bid; 5% dextran sulfate in drinking water
Description: Mice, when provided 5% high molecular weight dextran sulfate in their drinking water for 5-7 days, develop an acute colitis with diarrhea, gross rectal bleeding, and weight loss (Okayasu et al., 1990, Gastroenterol, 98:694-702).

SMILES	IC50 [1]	IC50 (human bronchial muscle)	ED50 (edema of the mouse ear)	further results
O=C(O)C(O)(c1ccc(OCc2ccc3ccccc3n2)cc1)C1Cc2ccccc2C1 (single isomer, unassigned; (-)) [Formula IV, (-)-2-hydroxy-2-(2-indanyl)-2-[4-(2-quinolinyl-methoxy)-phenyl]-acetic acid]	4500 nM	100 nM	15 mg/kg	
CS(=O)(=O)NC(=O)[C@@H](c1ccc(OCc2ccc3ccccc3n2)cc1)C1CCCCCC1 [Formula II, R-(-)-2-cycloheptyl-N-methylsulfonyl-2-[4-(2-quinolinyl-methoxy)-phenyl]-acetamide]	1100 nM	800 nM	5.2 mg/kg	occult blood in the stool [3]: reduction in occult blood in the stool; stool consistency [3]: improvement in stool consistency; symptoms of colitis [3]: decrease in the symptoms of colitis; weight loss [3]: reduction in weight loss
CC(c1cc2ccccc2s1)N(O)C(N)=O (stereo not drawn) [Zileuton, reference compound]	690 nM		47.4 mg/kg	inhibition at 1 µM (human bronchial muscle; @ 1 μM, anti-human IgE (1/1000), read-out: percentage of inhibition, human bronchial muscle): 4%

Second part, led by results:

IC50 [1]	IC50 (human bronchial muscle)	SMILES	ED50 (edema of the mouse ear)	further results
3000 nM	1000 nM	CC(C)Cc1cc(C(C(=O)O)C2CCCCCC2)ccc1OCc1ccc2ccccc2n1 (single isomer, unassigned; (-)) [Formula III, (-)-2-cycloheptyl-2-[3-isobutyl-4-(2-quinolinyl-methoxy)-phenyl]-acetic acid]	12.5 mg/kg	
17000 nM	800 nM	O=C(O)[C@@H](c1ccc(OCc2ccc3ccccc3n2)cc1)C1CCCC1 [Formula I, R-(-)-2-cyclopentyl-2-[4-(2-quinolinyl-methoxy)-phenyl]-acetic acid]	48.7 mg/kg	frequency and extent of the ulcerations [2]: reduces both the frequency of adhesions and the frequency and extend of the ulcerations; frequency of adhesions [2]: reduces both the frequency of adhesions; synthesis of LTB4 in culture supernatants of inflamed colonic tissue (LTB4): markedly inhibited; activity as a bronchodilator in man (bronchodilator in man): considerably greater than would have been predicted; synthesis of TxB2 in culture supernatants of inflamed colonic tissue (TxB2): not of TxB2
430 nM		CC(C)c1ccc2c(c1)c(SC(C)(C)C)c(CC(C)(C)C(=O)O)n2Cc1ccc(Cl)cc1 [MK886, reference compound]	~100 mg/kg	percentage of inhibition, human bronchial muscle (human bronchial muscle; @ μM (concentration not given), anti-human IgE (1/1000)): 0-39%
